Key:
[1] = test system: Dopaminergic cells Tyrosine Hydroxylase; experiment: Tyrosine hydroxylase immunohistochemistry; type: in vivo, CD-1 mice; settings: SG-fed animals, either time-point
Protocol: (§1) The synthetic SG was mixed with finely ground Purina Chow mouse pellets (Mouse Diet™, Purina) to create the experimental pellets with a SG content of 1000 µg per pellet. Dry materials were blended with a sterile silicon spatula. For every 5 g of standard feed, 2.5 mL of doubly-distilled water (dd)H2O was added and the dough was kneaded and round up into pellets. A single sterol glucoside containing pellet was placed in the feeding tray each morning before the addition of regular mouse chow (ad libitum). All experimental pellets were entirely consumed by the mice each day. Control mice were fed standard mouse chow pellets of identical weight with no additives. SG feeding was conducted daily for 15 weeks and mice were behaviorally monitored until sacrifice at 35 weeks (time point 1) or 52 weeks (time point 2).
Tissue-mounted slides were processed for fluorescence microscopy as follows: Sections were rinsed in coplin jars for 45 minutes at room temperature (RT) in three changes of PBS. Sections were then incubated at RT for 30 minutes in a blocking permeabilization solution made of 5% normal goat serum (NGS), 5% normal rabbit serum (NRS) or 5% BlokHen II (Aves Labs, Inc., Tigard, OR), 0.05% Triton X-100 and PBS. Subsequently, the blocking solution was tipped off and the slides were rinsed in PBS for 2 minutes. […]

CD-1 mice [2] = experiment: Open field monitoring; type: in vivo; settings: SG-fed vs control
Protocol: (§2) Five-month old male CD-1 mice (30.1-35.7 g, 7.5 cm - 8.8 cm) were purchased from Charles River (Wilmington, MA). Adult mice were chosen to mimic the mean age of onset of ALS-PDC (Kurland, 1988; Kurland et al., 1994). Thirty mice for the SG study were randomly divided into 2 groups (14 control and 16 experimental animals). All animals were housed singly in a virus-free barrier facility in a room maintained at 22°C under a 12 hour light/dark cycle. The mice were provided ad libitum access to food and water.
as §1
Open field monitoring: Spontaneous activity in an open field is considered one of the most standardized general measures of motor function (Crawley, 2000). The open field test can also reveal stress response in animals (i.e. defensive burying or thigmotaxis) (Karl et al., 2003). Open field testing of each animal was conducted every two weeks. A single mouse was placed in one of four round open field arena/tubs (approximately 1 m diameter) to permit the testing of four animals per 5 minute trial. […] This in turn, increases the likelihood of detection of fear-based behavior (Crawley, 2000) and minimizes habituation of the animal to the open field (Crawley, 2000). Testing arenas were cleaned with 70% ethanol before the testing of each animal and with quatricide at the end of each testing session. Movements were recorded using a video camera mounted on the ceiling. Video clips were reviewed and were manually scored or automatically analysed on an automated video tracking software (Ethovision® 3.1, Noldus Information Technologies Inc., Leesburg, VA, USA). Scoring was done on videotaped sessions, rather than in-person at the time of testing to avoid the introduction of confounding variables by the presence of an observer in close proximity to the mice (Crawley, 2000).

CD-1 mice [3] = experiment: Wire hang test; type: in vivo
Protocol: as §2, §1
Wire hang: Neuromuscular strength was tested by the wire hang (or hanging wire) test (Wilson et al., 2003d; Wilson et al., 2004c; Wilson et al., 2005; Tabata et al., 2008). Both balance and grip strength are required for a mouse to keep its body suspended (Crawley, 2000). Mice were placed on a wire cage lid elevated 50 cm above a soft landing surface. The latency to fall off the wire (maximum 60 seconds) (Sango et al., 1996) was measured from the moment the wire apparatus was inverted (180°). Wire hang testing was conducted biweekly.

Q: How did the “decrease in TH optical density, striata” value [1] turn out when `CCC(C=CC(C)C1CCC2C3CC=C4CC(OC5OC(CO)C(O)C(O)C5O)CCC4(C)C3CCC12C)C(C)C` (centres unmarked) [SG] was run?
A: not significant

Q: And the Total distance moved (CD-1 mice [2]; time-point 1, 35 wk)?
A: Total distance moved (ns)

Q: What about the “Total distance to zone border” value (CD-1 mice [2]; time-point 1, 35 wk) of the same molecule?
A: Total distance to zone border (ns)

Q: And the Total turn angle (CD-1 mice [2]; time-point 1, 35 wk)?
A: Total turn angle (ns)

Q: And the “Total distance to zone border” value (CD-1 mice [2]; time-point 2, 52 wk)?
A: Total distance to zone border* (*p<0.05)

Q: And the “increase in the time between inversion of the apparatus and falling” value (CD-1 mice [3]; SG fed mice, control group showed an increase)?
A: did not

Q: What about the Wirehang test performance (CD-1 mice [3]; SG-fed animals, prior to 35 weeks) of the same molecule?
A: decline in performance

Q: And the Wirehang (CD-1 mice [3]; SG-fed vs control, time-point 2, 52 wk)?
A: Wirehang* (*p<0.05)
